From patent US20070161592A1, “Method of treating fear” (priority 2005, published 2007) come the findings set out here.

Entries after “also recorded” stand apart in the source; their conditions may differ.

This assay has as its system male Sprague Dawley rats. Briefly: Rat fear conditioning (contextual and auditory fear memory). Format: in vivo. The source says: For one site drug infusion, 23-guage guide cannulas were implanted bilaterally into the dorsal hippocampus (CA1 region: 3.2 mm posterior to Bregma, ±1.5˜1.7 mm lateral from the midline, 1.7 mm beneath the surface of the skull). For two sites drug infusion, guide cannulas were implanted bilaterally into the dorsal hippocampus (first injection site: 2.8 mm posterior to Bregma, ±1.5 mm lateral from the midline, 1.7 mm beneath the surface of the skull; second injection site: 3.8 mm posterior to Bregma, ±1.8˜2.2 mm lateral from the midline, 1.3 mm beneath the surface of the skull). The dummy cannulas, cut 0.5 mm longer than guide cannulas, were inserted into the guide cannulas to prevent clogging and reduce the risk of infection. Rats were given at least 5 days to recover before experimentation. A 30-gauge injection cannula that was 1.5 mm lower than the guide was used for intra-hippocampal infusion. 1.0 μl Ro25-6981 (0.1 μg /μl) or saline was delivered bilaterally at the rate of 0.5 μl/min using a pump. After infusion, the cannulas were left in place for an additional 2 min to allow the solution to diffuse away from the cannula tip. Fifteen minutes later, rats were conditioned by one pairing of a tone (2.2 kHz, 96 dB, 30 s) and a foot shock (2.0 mA, 2 s) that terminated at the same time as the tone. […] Rats were returned to the conditioning chamber and allowed to stay in the chamber for 3-min without footshock.
However, the effects of local hippocampal injections of NR2B antagonists on fear conditioning have not been examined. Ro25-6981 (5 μg in 0.5 μl) was bilaterally injected into dorsal hippocampi (FIG. 8B) before conditional training. […] The NR2B specific antagonist was also injected into the ACC and hippocampus of rats and contextual and auditory fear memory was then measured. […] Hippocampal injections of a higher dose of Ro25-6981 (5 μg in 1 μl per side) bilaterally or multiple injections of the same dose (2 per side) were then tested to determine their affect on either contextual or auditory fear memory.

The mark [1] stands for this setting: hippocampal injections 5 μg in 1 μl per side, single or multiple (2 per side).

For `C[C@@H](CN1CCC(Cc2ccccc2)CC1)[C@@H](O)c1ccc(O)cc1` [Ro25-6981], the contextual memory entry (0.1 μg in 1 μl bilaterally into dorsal hippocampus before fear conditioning) is “did not impair contextual fear memory; also recorded: did not produce a significant impairment”. Besides, the auditory fear memory result reads like this: under setting [1], “Neither single nor multiple injections of Ro25-6981 produced a significant impairment”; (injected in the ACC) “did not affect auditory fear memory”; (injected in the hippocampus) “did not affect auditory fear memory”. For the same molecule, the contextual fear memory entry reads like this: under setting [1], “Neither single nor multiple injections of Ro25-6981 produced a significant impairment”; (in 1 μl per side bilaterally into the ACC before conditioning, tested one day after training) “impaired contextual fear memory; also recorded: significant reduction in contextual fear memory”.
